Where two headings read alike, the source gives them in different places.
Tests used:
MV-4-11 = assay: Tumor cell proliferation inhibition (CellTiter-Meiluncell Luminescent Cell Viability Assay); assay type: cell-based; settings: Homo sapiens, 96 hours; for inhibition at 0.01 µM: MV4-11, 10 nM, read-out: Inhibition Rate at 10 nM (%); for inhibition at 0.5 µM: MV4-11, 500 nM, read-out: Inhibition Rate at 500 nM (%)
Protocol: (§1) The tumor cells used herein were cultured in a cell culture medium listed in table 3 at 37°C in an incubator with 5% CO2. Prior to experimentation, all cell lines used were correctly identified by STR profiling, and tested negative for mycoplasma contamination using a mycoplasma detection kit through routine screenings. Table 3. Tumor cells and cell culture medium used in the present disclosure
(§2) The IC50 values of the compounds of the present disclosure (including the compounds in Table 1, Table 2, and Examples) were determined using the CellTiter-Meiluncell Luminescent Cell Viability Assay Kit from Dalian Meilun Biotech Co., Ltd. The detailed procedure is as follows: Tumor cells were seeded in 96-well cell culture plates at the densities specified in Table 4. On the following day, the test compounds of the present disclosure were subjected to serial dilution. […] Subsequently, 0.5 µL of the test compound dilution was transferred into the 96-well plate containing the cells, with each well containing 100 µL of cell culture medium. […] Into the 96-well plate, the diluted test compounds and corresponding detection reagents were added, resulting in final test compound concentrations of 500 nM and 10 nM, respectively. The experimental procedure is described below using the diluted 2 µM test compound as an example.
(§3) 0.5 µL of the aforementioned diluted compound of the present disclosure (including the compounds in Table 1, Table 2, and Examples) was added to the seeded cells in 100 µL of medium, yielding a final test compound concentration of 10 nM. After the cells were treated with the compounds of the present disclosure for a specified period, the cell viability assay reagent was added to the culture medium according to the kit's instructions to determine cell viability. […] All controls were treated using the same procedure as the compounds of the present disclosure. […] Seeding protocol and treatment time for tumor cells

RPMI-8226 = assay: as above; assay type: cell-based; settings: Homo sapiens, 96 hours, Table I-10, BCR-ABL inhibitors; for inhibition at 0.01 µM: 10 nM, read-out: Inhibition Rate at 10 nM (%); for inhibition at 0.5 µM: 500 nM, read-out: Inhibition Rate at 500 nM (%)
Protocol: as §1, §2, §3

SW620 = assay: as above; assay type: cell-based; settings: Homo sapiens, 96 hours; for inhibition at 0.01 µM: SW-620, 10 nM, read-out: Inhibition Rate at 10 nM (%); for inhibition at 0.5 µM: SW-620, 500 nM, read-out: Inhibition Rate at 500 nM (%)
Protocol: as §1, §2, §3

MCF-7 = assay: as above; assay type: cell-based; settings: Homo sapiens, 96 hours, Table I-2, ALK inhibitors; for inhibition at 0.01 µM: MCF7, 10 nM, read-out: Inhibition Rate at 10 nM (%); for inhibition at 0.5 µM: MCF7, 500 nM, read-out: Inhibition Rate at 500 nM (%)
Protocol: as §1, §2, §3

MM.1S = assay: as above; assay type: cell-based; settings: Homo sapiens, MM1.S; for inhibition at 0.01 µM: read-out: Inhibition Rate at 10 nM (%); for inhibition at 0.5 µM: read-out: Inhibition Rate at 500 nM (%)
Protocol: as §1, §2, §3

[1] = biological target: T1, human Cereblon WT GST-tagged protein (Homo sapiens, UniProt Q96SW2); assay: CRBN-binding affinity, HTRF (CEREBLON BINDING kit); settings: for inhibition at 0.5 µM: read-out: Inhibition Rate at 0.5 µM (%); for inhibition at 2 µM: read-out: Inhibition Rate at 2 µM (%)
T1 construct: purchased CISBIO 64BDCRBNPEH
Outline: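 Competitive HTRF format: test compounds diluted in diluent #9 (1X) were combined with GST-tagged Cereblon, then a premixed thalidomide-red tracer plus anti-GST europium antibody; final compound concentrations were 2 µM and 0.5 µM. Blank wells received diluent and PROTAC binding buffer instead of compound and protein.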

JEKO-1 = assay: Tumor cell proliferation inhibition (CellTiter-Meiluncell Luminescent Cell Viability Assay); assay type: cell-based; settings: Homo sapiens, 96 hours, Table I-6, IRAK4 inhibitors; for inhibition at 0.01 µM: 10 nM, read-out: Inhibition Rate at 10 nM (%); for inhibition at 0.5 µM: 500 nM, read-out: Inhibition Rate at 500 nM (%)
Protocol: as §1, §2, §3

[2] = MM.1S, 10 nM, 96 hours, Table I-2, ALK inhibitors
[3] = MM.1S, 500 nM, 96 hours, Table I-2, ALK inhibitors
[4] = MM.1S, 10 nM, 96 hours, Table I-6, IRAK4 inhibitors
[5] = MM.1S, 500 nM, 96 hours, Table I-6, IRAK4 inhibitors

T1 sequence (Q96SW2 whole entry): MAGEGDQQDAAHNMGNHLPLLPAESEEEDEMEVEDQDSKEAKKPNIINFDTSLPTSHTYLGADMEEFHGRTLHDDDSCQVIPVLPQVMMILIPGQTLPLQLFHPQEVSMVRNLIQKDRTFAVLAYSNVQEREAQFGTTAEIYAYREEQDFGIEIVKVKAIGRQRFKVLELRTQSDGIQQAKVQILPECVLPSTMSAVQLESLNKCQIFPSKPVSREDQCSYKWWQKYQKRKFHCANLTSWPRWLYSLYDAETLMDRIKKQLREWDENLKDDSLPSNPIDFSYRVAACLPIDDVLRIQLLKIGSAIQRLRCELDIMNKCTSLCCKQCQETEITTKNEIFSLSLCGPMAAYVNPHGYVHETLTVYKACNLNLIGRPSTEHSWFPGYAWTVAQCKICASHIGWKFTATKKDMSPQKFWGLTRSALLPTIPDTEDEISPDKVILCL

SMILES: Cc1ccc(NC(=O)c2ccc(CN3CCN(C)CC3)cc2)cc1Nc1nccc(-c2cccnc2)n1 [imatinib]
- inhibition at 0.01 µM (MV-4-11; Table I-10, BCR-ABL inhibitors): 0 to 5%
- inhibition at 0.5 µM (MV-4-11; Table I-10, BCR-ABL inhibitors): 0 to 5%
- inhibition at 0.01 µM (RPMI-8226): 5 to 10%
- inhibition at 0.5 µM (RPMI-8226): 10 to 20%
- inhibition at 0.01 µM (SW620; Table I-10, BCR-ABL inhibitors): 5 to 10%
- inhibition at 0.5 µM (SW620; Table I-10, BCR-ABL inhibitors): 10 to 20%

SMILES: COc1cc(N2CCN(Cc3cccc4c3CN(C3CCC(=O)NC3=O)C4=S)CC2)ccc1Nc1ncc(Cl)c(Nc2ccccc2P(C)(C)=O)n1 (stereo not shown) [GT-08677, 3-(4-((4-(4-((5-chloro-4-((2-(dimethylphosphoryl)phenyl)amino)pyrimidin-2-yl)amino)-3-methoxyphenyl)piperazin-1-yl)methyl)-1-thioxoisoindolin-2-yl)piperidine-2,6-dione]
- inhibition at 0.01 µM (MCF-7): -5 to 0%
- inhibition at 0.5 µM (MCF-7): 30 to 40%
- inhibition at 0.01 µM (MM.1S; [2]): 10 to 20%
- inhibition at 0.5 µM (MM.1S; [3]): 20 to 30%
- inhibition at 0.01 µM (MV-4-11; Table I-2, ALK inhibitors): 0 to 10%
- inhibition at 0.5 µM (MV-4-11; Table I-2, ALK inhibitors): 60 to 70%
- inhibition at 0.5 µM [1]: 53 to 60%
- inhibition at 2 µM [1]: 80 to 100%

SMILES: CC[C@@H]1[C@H](F)C(=O)N[C@@H]1COc1nccc2cc(C(N)=O)c(OC)cc12 [PF06650833, PF-06650833, reference compound]
- inhibition at 0.01 µM (JEKO-1): 10 to 20%
- inhibition at 0.5 µM (JEKO-1): 20 to 30%
- inhibition at 0.01 µM (MM.1S; 96 h): 0 to 5%
- inhibition at 0.5 µM (MM.1S; 96 h): 0 to 5%
- inhibition at 0.01 µM (MV-4-11; Table I-6, IRAK4 inhibitors): 20 to 30%
- inhibition at 0.5 µM (MV-4-11; Table I-6, IRAK4 inhibitors): 20 to 30%
- inhibition at 0.01 µM (SW620; Table I-6, IRAK4 inhibitors): 10 to 20%
- inhibition at 0.5 µM (SW620; Table I-6, IRAK4 inhibitors): 10 to 20%

SMILES: O=C1CCC(N2Cc3cc(CN4CCC(n5cc(NC(=O)c6cnn7ccc(N8CCOCC8)nc67)c(C(F)F)n5)CC4)ccc3C2=S)C(=O)N1 (stereo not shown) [GT-05098, N-(3-(difluoromethyl)-1-(1-((2-(2,6-dioxopiperidin-3-yl)-1-thioxoisoindolin-5-yl)methyl)piperidin-4-yl)-1H-pyrazol-4-yl)-5-morpholinopyrazolo[1,5-a]pyrimidine-3-carboxamide]
- inhibition at 0.01 µM (JEKO-1): 5 to 10%
- inhibition at 0.5 µM (JEKO-1): 20 to 30%
- inhibition at 0.01 µM (MM.1S; [4]): 20 to 30%
- inhibition at 0.5 µM (MM.1S; [5]): 80 to 100%
- inhibition at 0.01 µM (MV-4-11; Table I-6, IRAK4 inhibitors): 20 to 30%
- inhibition at 0.5 µM (MV-4-11; Table I-6, IRAK4 inhibitors): 80 to 100%
- inhibition at 0.01 µM (SW620; Table I-6, IRAK4 inhibitors): 10 to 20%
- inhibition at 0.5 µM (SW620; Table I-6, IRAK4 inhibitors): 40 to 50%
- inhibition at 0.5 µM [1]: 80 to 100%
- inhibition at 2 µM [1]: 80 to 100%

SMILES: Cc1ccc(C(=O)Nc2ccc(CN3CCN(Cc4cccc5c4CN(C4CCC(=O)NC4=O)C5=S)CC3)c(C(F)(F)F)c2)cc1C#Cc1cnc2cccnn12 (stereo not shown) [GT-08773, N-(4-((4-((2-(2,6-dioxopiperidin-3-yl)-1-thioxoisoindolin-4-yl)methyl)piperazin-1-yl)methyl)-3-(trifluoromethyl)phenyl)-3-(imidazo[1,2-b]pyridazin-3-ylethynyl)-4-methylbenzamide]
- inhibition at 0.01 µM (MM.1S; MM.1S, 10 nM, 96 hours, Table I-10, BCR-ABL inhibitors): 10 to 20%
- inhibition at 0.5 µM (MM.1S; MM.1S, 500 nM, 96 hours, Table I-10, BCR-ABL inhibitors): 80 to 100%
- inhibition at 0.01 µM (MV-4-11; Table I-10, BCR-ABL inhibitors): 30 to 40%
- inhibition at 0.5 µM (MV-4-11; Table I-10, BCR-ABL inhibitors): 80 to 100%
- inhibition at 0.01 µM (RPMI-8226): 5 to 10%
- inhibition at 0.5 µM (RPMI-8226): 60 to 70%
- inhibition at 0.01 µM (SW620; Table I-10, BCR-ABL inhibitors): 0 to 5%
- inhibition at 0.5 µM (SW620; Table I-10, BCR-ABL inhibitors): 70 to 80%
- inhibition at 0.5 µM [1]: 30 to 40%
- inhibition at 2 µM [1]: 60 to 80%

SMILES: O=C1CCC(N2Cc3cc(CN4CCC(n5cc(NC(=O)c6coc(-c7ccnc(NCC8CC8)c7)n6)c(C(F)F)n5)CC4)ccc3C2=S)C(=O)N1 (stereo not shown) [GT-05286, 2-(2-((cyclopropylmethyl)amino)pyridin-4-yl)-N-(3-(difluoromethyl)-1-(1-((2-(2,6-dioxopiperidin-3-yl)-1-thioxoisoindolin-5-yl)methyl)piperidin-4-yl)-1H-pyrazol-4-yl)oxazole-4-carboxamide]
- inhibition at 0.01 µM (JEKO-1): 10 to 20%
- inhibition at 0.5 µM (JEKO-1): 80 to 100%
- inhibition at 0.01 µM (MM.1S; [4]): 50 to 60%
- inhibition at 0.5 µM (MM.1S; [5]): 80 to 100%
- inhibition at 0.01 µM (MV-4-11; Table I-6, IRAK4 inhibitors): 80 to 100%
- inhibition at 0.5 µM (MV-4-11; Table I-6, IRAK4 inhibitors): 80 to 100%
- inhibition at 0.01 µM (SW620; Table I-6, IRAK4 inhibitors): 60 to 70%
- inhibition at 0.5 µM (SW620; Table I-6, IRAK4 inhibitors): 70 to 80%
- inhibition at 0.5 µM [1]: 30 to 40%
- inhibition at 2 µM [1]: 60 to 80%

SMILES: O=C1CCC(N2Cc3cc(CN4CCC(n5cc(NC(=O)c6cnn7ccc(N8C[C@H]9C[C@@H]8CO9)nc67)c(C(F)F)n5)CC4)ccc3C2=S)C(=O)N1 (stereo partly drawn) [GT-05321, 5-((1R,4R)-2-oxa-5-azabicyclo[2.2.1]heptan-5-yl)-N-(3-(difluoromethyl)-1-(1-((2-(2,6-dioxopiperidin-3-yl)-1-thioxoisoindolin-5-yl)methyl)piperidin-4-yl)-1H-pyrazol-4-yl)pyrazolo[1,5-a]pyrimidine-3-carboxamide]
- inhibition at 0.01 µM (JEKO-1): 5 to 10%
- inhibition at 0.5 µM (JEKO-1): 40 to 50%
- inhibition at 0.01 µM (MM.1S; [4]): 30 to 40%
- inhibition at 0.5 µM (MM.1S; [5]): 80 to 100%
- inhibition at 0.01 µM (MV-4-11; Table I-6, IRAK4 inhibitors): 40 to 50%
- inhibition at 0.5 µM (MV-4-11; Table I-6, IRAK4 inhibitors): 80 to 100%
- inhibition at 0.01 µM (SW620; Table I-6, IRAK4 inhibitors): 30 to 40%
- inhibition at 0.5 µM (SW620; Table I-6, IRAK4 inhibitors): 70 to 80%
- inhibition at 0.5 µM [1]: 60 to 80%
- inhibition at 2 µM [1]: 80 to 100%

SMILES: Cc1cc(Nc2ncc(Cl)c(Nc3ccccc3S(=O)(=O)C(C)C)n2)c(OC(C)C)cc1C1CCN(Cc2ccc3c(c2)CN(C2CCC(=O)NC2=O)C3=S)CC1 (stereo not shown) [GT-08674, 3-(5-((4-(4-((5-chloro-4-((2-(isopropylsulfonyl)pheny 1)amino)pyrimidin-2-yl)amino)-5-isopropoxy-2-methylphenyl)piperidin-1-yl)methyl)-1-thioxoisoindolin-2-yl)piperidine-2,6-dione]
- inhibition at 0.01 µM (MCF-7): 30 to 40%
- inhibition at 0.5 µM (MCF-7): 60 to 70%
- inhibition at 0.01 µM (MM.1S; [2]): 30 to 40%
- inhibition at 0.5 µM (MM.1S; [3]): 80 to 100%
- inhibition at 0.01 µM (MV-4-11; Table I-2, ALK inhibitors): 0 to 10%
- inhibition at 0.5 µM (MV-4-11; Table I-2, ALK inhibitors): 30 to 40%
- inhibition at 0.5 µM [1]: 40 to 53%
- inhibition at 2 µM [1]: 53 to 60%

From patent EP4745138A1, “THIO-GLUTARIMIDO ISOINDOLINONE DERIVATIVE, BIFUNCTIONAL PROTEIN DEGRADER CONTAINING SAME, AND USES THEREOF” (Gluetacs Therapeutics (Shanghai) Co., Ltd., priority 2023, dated 2025)
